In patent US20230150946A1, “HETEROCYCLE CONTAINING STAT INHIBITORS AND COMPOSITIONS” (JANPIX LIMITED, priority 2020, published 2023):
Where two headings read alike, the source gives them in different places.

Tests used:
MV4-11 cells = assay: MV4-11 Cell Cytotoxicity Assay (CellTiter-Blue, 72 h); assay type: cell-based, human; conditions: 72 h at 37° C.
Procedure: In some embodiments, the potency of the STAT5 inhibitors are evaluated by an in vitro assay such as MV4-11 Cell Cytotoxicity Assay. MV4-11 cells were grown in Iscove's Modified Dulbecco's Medium (IMDM) supplemented with 10% fetal bovine serum (FBS). 10,000 cells were plated per well in 96-well flat-bottom sterile culture plates with low-evaporation lids. After 24 h, inhibitors and a vehicle control (0.5% DMSO) were added and the cells were incubated for 72 h at 37° C. in 5% CO2. Inhibitors were examined in triplicate at a maximal concentration of 50 μM, followed by 1:2 dilutions in subsequent wells (25, 12.5, 6.25, 3.125, 1.5625, 0.78125, 0.390625, 0.195313 and 0.097656 μM). After 72 h, the wells were treated with CellTiter-Blue® (20 μL/well), and the plates were incubated using standard cell culture conditions for 1 hour. Fluorescence was measured at 560/590 nm.

[1] = Reactivity Profiling with Glutathione (GSH), HPLC; assay type: in vitro ADME; conditions: 5 mM glutathione (GSH) in cell culture medium, 25 μM inhibitor, IMDM 10% FBS, 0.5% DMSO, 25° C., read-out: T1/2-GSH
Procedure: In some embodiments, metabolic stability of the compounds are evaluated according to their reactivity profiles with GSH.
3.5 μL of 5 mM stocking solution of the inhibitors in DMSO was added to 697.5 μL of Iscove's Modified Dulbecco's Medium (IMDM) supplemented with 10% FBS and antibiotic antimycotic solution, with 5 mM glutathione to afford a final concentration of 25 μM inhibitor with 0.5% DMSO. The solution was then immediately placed in the sample tray at 25° C. Sample was analyzed at pre-defined intervals, typically every 1.5 hours, for up to four injections, by HPLC, included at time zero, without further pre-treatment. For each inhibitor, its peak is integrated at different time points and compared to the time zero injection in order to obtain a percentage remaining. Half-life is calculated according to a first order reaction kinetic taking into account those time points for which remaining percentage of inhibitor is above 40%, using the formula: t½=Ln(2)/k, where k is the slope of the linear plot of Ln[Inhibitor] vs time, according to the formula: Ln[A]=Ln[A]0−kt, where [A] is the value resulting from the integration at each time point, [A]0 the value at time zero, and t the time. For each inhibitor, both replicates are averaged and the resulting t½ reported. Selective reactivity against GSH in particular is confirmed by incubation of the inhibitor in the same solution without the presence of GSH, and single analysis after a time longer than the latest time point analyzed for the samples with GSH.

[2] = Homo sapiens, Table 3, read-out: IC50-MV-4-11

Row | half-life at 25 μM [1] [h] | Compound | IC50 (MV4-11 cells; [2]) [nM] | further results
1 | 9.23 to 1670 | CN(C)c1c(NCCN(Cc2cc(C3CC3)cc(C(C)(C)C)c2)C(=O)CN(Cc2ccccc2F)S(=O)(=O)c2c(F)c(F)c(F)c(F)c2F)c(=O)c1=O [Compound 1010, N-(3-(tert-butyl)-5-cyclopropylbenzyl)-N-(2-((2-(dimethylamino)-3,4-dioxocyclobut-1-en-1-yl)amino)ethyl)-2-(N-(2-fluorobenzyl)-(2,3,4,5,6-pentafluorophenyl)sulfonamido)acetamide] | 0.01 to 1000 | –
2 | 4.12 to 9.23 | CN(C)c1c(NCCN(Cc2cc(C3CC3)cc(C(C)(C)C)c2)C(=O)CN(Cc2cnccc2C(F)(F)F)S(=O)(=O)c2c(F)c(F)c(F)c(F)c2F)c(=O)c1=O [Compound 1012, N-(3-(tert-butyl)-5-cyclopropylbenzyl)-N-(2-((2-(dimethylamino)-3,4-dioxocyclobut-1-en-1-yl)amino)ethyl)-2-(N-((4-(trifluoromethyl)pyridin-3-yl)methyl)-(2,3,4,5,6-pentafluorophenyl)sulfonamido)acetamide] | 0.01 to 1000 | –
3 | 9.23 to 1670 | CC(C)(C)c1cc(CN(C(=O)CN(Cc2ccc(Cl)cc2)S(=O)(=O)c2c(F)c(F)c(F)c(F)c2F)c2cnc(N)nc2)cc(C2CC2)c1 [Compound 1006, N-(2-aminopyrimidin-5-yl)-N-(3-(tert-butyl)-5-cyclopropylbenzyl)-2-(N-(4-chlorobenzyl)-(2,3,4,5,6-pentafluorophenyl)sulfonamido)acetamide] | 1000 to 3160 | –
4 | – | CC(C)(C)c1cc(CN(C(=O)CN(Cc2ccccc2F)S(=O)(=O)c2c(F)c(F)c(F)c(F)c2F)c2ccc(N)nc2)cc(C2CC2)c1 [Compound 1008, N-(6-aminopyridin-3-yl)-N-(3-(tert-butyl)-5-cyclopropylbenzyl)-2-(N-(2-fluorobenzyl)-(2,3,4,5,6-pentafluorophenyl)sulfonamido)acetamide] | 1000 to 3160 | –
5 | 4.12 to 9.23 | CC(C)(C)c1cc(CN(C(=O)CN(Cc2ccccc2F)S(=O)(=O)c2c(F)c(F)c(F)c(F)c2F)c2cnc(N)nc2)cc(C2CC2)c1 [Compound 1009, N-(2-aminopyrimidin-5-yl)-N-(3-(tert-butyl)-5-cyclopropylbenzyl)-2-(N-(2-fluorobenzyl)-(2,3,4,5,6-pentafluorophenyl)sulfonamido)acetamide] | 0.01 to 1000 | –
6 | – | CC(C)(C)c1cc(CN(C(=O)CN(Cc2ccc(Cl)cc2)S(=O)(=O)c2c(F)c(F)c(F)c(F)c2F)C2=CNC(=O)NC2)cc(C2CC2)c1 [Compound 1018, N-(3-(tert-butyl)-5-cyclopropylbenzyl)-2-(N-(4-chlorobenzyl)-(2,3,4,5,6-pentafluorophenyl)sulfonamido)-N-(2-oxo-1,2,3,4-tetrahydropyrimidin-5-yl)acetamide] | – | IC50 (MV4-11 cells; Homo sapiens, Table 4, read-out: IC50-MV-4-11): 1000 to 3160 nM
7 | – | CC(C)(C)c1cc(CN(C(=O)CN(Cc2ccc(Cl)cc2)S(=O)(=O)c2c(F)c(F)c(F)c(F)c2F)c2ccc(N)nc2)cc(C2CC2)c1 [Compound 1007, N-(6-aminopyridin-3-yl)-N-(3-(tert-butyl)-5-cyclopropylbenzyl)-2-(N-(4-chlorobenzyl)-(2,3,4,5,6-pentafluorophenyl)sulfonamido)acetamide] | 1000 to 3160 | –
8 | – | CC(C)(C)c1cc(CN(C(=O)CN(Cc2ccc(Cl)cc2)S(=O)(=O)c2c(F)c(F)c(F)c(F)c2F)c2ccc(C(=O)O)nc2)cc(C2CC2)c1 [Compound 1004, 5-(N-(3-(tert-butyl)-5-cyclopropylbenzyl)-2-(N-(4-chlorobenzyl)-(2,3,4,5,6-pentafluorophenyl)sulfonamido)acetamido) picolinic acid] | 3160 to 100000 | –
9 | 9.23 to 1670 | CNc1c(NCCN(Cc2cc(C3CC3)cc(C(C)(C)C)c2)C(=O)CN(Cc2ccccc2F)S(=O)(=O)c2c(F)c(F)c(F)c(F)c2F)c(=O)c1=O [Compound 1013, N-(3-(tert-butyl)-5-cyclopropylbenzyl)-N-(2-((2-(methylamino)-3,4-dioxocyclobut-1-en-1-yl)amino)ethyl)-2-(N-(2-fluorobenzyl)-(2,3,4,5,6-pentafluorophenyl)sulfonamido)acetamide] | 0.01 to 1000 | –
10 | – | COc1ccc(N(Cc2cc(C3CC3)cc(C(C)(C)C)c2)C(=O)CN(Cc2ccc(Cl)cc2)S(=O)(=O)c2c(F)c(F)c(F)c(F)c2F)cn1 [Compound 1005, N-(3-(tert-butyl)-5-cyclopropylbenzyl)-2-(N-(4-chlorobenzyl)-(2,3,4,5,6-pentafluorophenyl)sulfonamido)-N-(6-methoxypyridin-3-yl) acetamide] | 3160 to 100000 | –
11 | 9.23 to 1670 | CC(C)(C)c1cc(CN(C(=O)CN(Cc2ccc(Cl)cc2)S(=O)(=O)c2c(F)c(F)c(F)c(F)c2F)c2ccc(O)nc2)cc(C2CC2)c1 [Compound 1002, N-(3-(tert-butyl)-5-cyclopropylbenzyl)-2-(N-(4-chlorobenzyl)-(2,3,4,5,6-pentafluorophenyl)sulfonamido)-N-(6-hydroxypyridin-3-yl) acetamide] | 1000 to 3160 | –
12 | – | CC(C)(C)c1cc(CN(C(=O)CN(Cc2cnccc2C(F)(F)F)S(=O)(=O)c2c(F)c(F)c(F)c(F)c2F)c2cnc(N)nc2)cc(C2CC2)c1 [Compound 1017, N-(2-aminopyrimidin-5-yl)-N-(3-(tert-butyl)-5-cyclopropylbenzyl)-2-(N-((4-(trifluoromethyl)pyridin-3-yl)methyl)-(2,3,4,5,6-pentafluorophenyl)sulfonamido)acetamide] | 0.01 to 1000 | –
13 | 9.23 to 1670 | CN(C)c1c(N(C)CCN(Cc2cc(C3CC3)cc(C(C)(C)C)c2)C(=O)CN(Cc2ccccc2F)S(=O)(=O)c2c(F)c(F)c(F)c(F)c2F)c(=O)c1=O [Compound 1014, N-(3-(tert-butyl)-5-cyclopropylbenzyl)-N-(2-((2-(dimethylamino)-3,4-dioxocyclobut-1-en-1-yl) (methyl)amino)ethyl)-2-(N-(2-fluorobenzyl)-(2,3,4,5,6-pentafluorophenyl)sulfonamido)acetamide] | 0.01 to 1000 | –
14 | – | CC(C)(C)c1cc(CN(C(=O)CN(Cc2ccc(Cl)cc2)S(=O)(=O)c2c(F)c(F)c(F)c(F)c2F)c2cccnc2)cc(C2CC2)c1 [Compound 1001, N-(3-(tert-butyl)-5-cyclopropylbenzyl)-2-(N-(4-chlorobenzyl)-(2,3,4,5,6-pentafluorophenyl)sulfonamido)-N-(pyridin-3-yl) acetamide] | 1000 to 3160 | –
15 | – | CN(C)c1c(NCCCN(Cc2cc(C3CC3)cc(C(C)(C)C)c2)C(=O)CN(Cc2ccccc2F)S(=O)(=O)c2c(F)c(F)c(F)c(F)c2F)c(=O)c1=O [Compound 1015, N-(3-(tert-butyl)-5-cyclopropylbenzyl)-N-(3-((2-(dimethylamino)-3,4-dioxocyclobut-1-en-1-yl)amino)propyl)-2-(N-(2-fluorobenzyl)-(2,3,4,5,6-pentafluorophenyl)sulfonamido)acetamide] | 0.01 to 1000 | –
16 | – | CNc1c(N(C)CCN(Cc2cc(C3CC3)cc(C(C)(C)C)c2)C(=O)CN(Cc2ccccc2F)S(=O)(=O)c2c(F)c(F)c(F)c(F)c2F)c(=O)c1=O [Compound 1016, N-(3-(tert-butyl)-5-cyclopropylbenzyl)-N-(2-(methyl(2-(methylamino)-3,4-dioxocyclobut-1-en-1-yl)amino)ethyl)-2-(N-(2-fluorobenzyl)-(2,3,4,5,6-pentafluorophenyl)sulfonamido)acetamide] | 0.01 to 1000 | –
17 | – | CN(C)c1c(NCCN(Cc2cc(C3CC3)cc(C(C)(C)C)c2)C(=O)CN(Cc2c(F)cc(F)cc2F)S(=O)(=O)c2c(F)c(F)c(F)c(F)c2F)c(=O)c1=O [Compound 1011, N-(3-(tert-butyl)-5-cyclopropylbenzyl)-N-(2-((2-(dimethylamino)-3,4-dioxocyclobut-1-en-1-yl)amino)ethyl)-2-(N-(2,4,6-trifluorobenzyl)-(2,3,4,5,6-pentafluorophenyl)sulfonamido)acetamide] | 0.01 to 1000 | –
18 | – | N-(3-(tert-butyl)-5- cyclopropylbenzyl)-2-(N-(4- chlorobenzyl)-(2,3,4,5,6- pentafluorophenyl) sulfonamido)-N-(2- methoxypyrimidin-5-yl) acetamide [Compound 1003] | – | IC50 (MV4-11 cells; Table 3, read-out: IC50-MV-4-11): 1000 to 3160 nM
